{"source": "patent US10378021B2", "about": "“Plant CO2 sensors, nucleic acids encoding them, and methods for making and using them” (The Regents of the University of California, priority 2007, dated 2019)", "key": {"[1]": {"test_system": "Arabidopsis guard cells", "details": "loaded into Arabidopsis guard cells; cited from earlier work"}, "[2]": {"test_system": "wild-type leaf epidermis stomata", "assay": "CO2-induced stomatal movements in leaf epidermis treated with carbonic anhydrase inhibitor", "format": "cell-based, Arabidopsis thaliana", "details": "wild-type leaf epidermis treated for 30 min"}, "[3]": {"test_system": "wild-type Arabidopsis thaliana plants", "assay": "Norflurazon bleaching of leaves and CO2-induced stomatal movements in albino leaves", "format": "in vivo", "experimental": "To further analyze whether intact photosynthesis is required for CO2 regulation of stomatal movements, another approach was carried out.\nFIG. 13A illustrates an image of chlorophyll-deficient albino wild-type leaves devoid of functional chloroplasts were generated by application of the carotenoid biosynthesis inhibitor norflurazon. The absence of chlorophyll in albino guard cells compared to wild-type was visualized by confocal microscopy (FIG. 13B graphically illustrates data) and quantified by image analysis of the chlorophyll fluorescence intensity (FIG. 13C graphically illustrates data) (n=3, 12 stomata/sample.). FIG. 13D graphically illustrates data showing CO2-induced stomatal movements in albino versus control plant leaves (n=7, 50 stomata/sample). Error bars depict means±s.e.m."}, "[4]": {"test_system": "ca1ca4 leaf epidermis stomata", "assay": "abscisic acid-induced stomatal closing in leaf epidermis", "format": "cell-based, Arabidopsis thaliana", "experimental": "FIG. 10A illustrates stomata in ca1ca4 double mutant leaves close in response to abscisic acid; n=3 experiments, 30 stomata/experiment and condition. Error bars depict means±s.e.m. FIG. 10B illustrates CO2-induced stomatal movements are impaired in ca1ca4 double mutant leaves and in wild-type leaf epidermis treated with the carbonic anhydrase inhibitor 6-ethoxy-2-benzothiazolesulphonamide (EZA) (n=6, 30 stomata/sample); see e.g., Becker et al., 2007.\nTo determine whether the impaired CO2 responses in intact leaves (see FIG. 9C, FIG. 9D, FIG. 9E) are linked to stomatal movements, CO2 responses were analyzed in leaf epidermis. CO2-induced stomatal movements were impaired in ca1ca4 as compared to wild-type, as illustrated in FIG. 10B. Furthermore, when wild-type leaf epidermis were treated for 30 min with the membrane-permeable CA inhibitor EZA (see, e.g., Becker et al., 2007), CO2-induced stomatal opening and closing were inhibited, which correlates with a role for carbonic anhydrases in CO2 sensing, rather than a long-term developmental effect of CA gene disruption on the rapid CO2 response, as illustrated in FIG. 10B."}}, "data": [{"smiles": "O=C(O)CN(CC(=O)O)c1ccccc1OCCOc1ccccc1N(CC(=O)O)CC(=O)O", "note": "[BAPTA]", "values": [{"measurement": "spontaneous calcium transients in guard cells", "setting": "[1]", "result": "effectively inhibits"}]}, {"smiles": "CCOc1ccc2nc(S(N)(=O)=O)sc2c1", "note": "[EZA, 6-ethoxy-2-benzothiazolesulphonamide]", "values": [{"measurement": "CO2-induced stomatal opening and closing", "setting": "[2]", "result": "inhibited"}]}, {"smiles": "CNc1cnn(-c2cccc(C(F)(F)F)c2)c(=O)c1Cl", "note": "[Norflurazon]", "values": [{"measurement": "stomatal CO2 response to both high and low [CO2] in intact leaves", "setting": "[3]; albino leaves without functional chloroplasts", "result": "not affected"}, {"measurement": "leaf phenotype of newly emerging leaves", "setting": "[3]; watering 3 to 4 week-old wild-type plants", "result": "albino chlorophyll-deficient wild-type leaves devoid of functional chloroplasts"}]}, {"smiles": "CC1=CC(=O)CC(C)(C)[C@@]1(O)/C=C/C(C)=C\\C(=O)O", "note": "[abscisic acid]", "values": [{"measurement": "ABA-induced stomatal closing", "setting": "[4]", "result": "completely functional"}]}]}
